# Test results reported in paper PMC6550523, “De Novo Emergence of Peptides That Confer Antibiotic Resistance” (mBio, 2019).
# Like-named read-outs stand apart in the source and are kept apart here.
# Legend:
# [1] = system: bovine cytochrome c oxidase (CytcO) reconstituted into proteoliposomes; format: biochemical
# Description: When ionophores (valinomycin, a K^+ ionophore, and/or FCCP, a protonophore similar to CCCP) are added, this gradient is partly or fully dissipated, and the so-called uncoupled rate is reached. […] Thus, we determined the RCRs after adding the Arp-1 and Arp1-L11K peptides, and as positive controls we added valinomycin and FCCP in addition to the peptides (Fig. 4B and Fig. S4C).
# (A) CytcO reduces O2 to H2O, using electrons from reduced cytochrome (cyt.) c and protons from inside the liposomes. In addition, protons are pumped and a proton electrochemical gradient (positive outside) across the membrane is established. Valinomycin, a K^+ ionophore, can dissipate the charge component and FCCP, a protonophore, both components of this gradient. (B) A typical oxygen consumption experiment; the baseline with only ascorbate, TMPD, and cyt. c was first measured. Proteoliposomes then were added, initiating oxygen consumption by CytcO and build-up of a membrane potential. The coupled rate is the slope after liposome addition subtracting the baseline. Peptides (Arp1 or L11K), valinomycin, and FCCP were added, in this order, and the rates measured. RCRs were determined by dividing the different rates by the initial coupled rate. […]
# CytcO activity was measured using a Clark-type oxygen electrode (Hansatech) at 25°C. […] Oxygen consumption rates and RCRs were measured essentially as described in reference [43].
# [2] = system: Escherichia coli K-12 strain BW25113; assay: MIC determination (Etest) in strains expressing the peptides; format: cell-based; settings: for Increased aminoglycoside resistance on overexpression of endogenous E. coli peptides: TisB from a pBAD promoter, arabinose 0.0125 to 0.2%, at viable expression levels
# Description: Most strains used in this study were derived from Escherichia coli K-12 BW25113 (designated E. coli throughout the text) and are listed in Table S1 in the supplemental material. If not indicated otherwise, Muller Hinton broth (MHB) (Becton, Dickinson) was used for growth in liquid cultures and Muller Hinton agar (MHA; MHB supplemented with 15 g/liter agar) for growth on plates. To maintain the plasmid pRD2 or pBAD18, the growth media were supplemented with 100 mg/liter ampicillin or 15 mg/liter chloramphenicol, respectively. Induction of expression was performed in the presence of 1 mM IPTG (pRD2) or 0.2% arabinose (pBAD18). For counterselection of sacB, no-salt lysogeny agar plates (10 g/liter tryptone, 5 g/liter yeast extract, 15 g/liter agar, and 50 g/liter sucrose) were used. Recovery after transformation was done in SOC medium (20 g/liter tryptone, 5 g/liter yeast extract, 0.5 g/liter NaCl, 10 mM MgCl2, […], and 4 g/liter glucose). For washing and dilution of cells, phosphate-buffered saline (PBS; 8 g/liter NaCl, 0.2 g/liter KCl, 1.44 g/liter Na2HPO4, and 0.24 g/liter KH2PO4) was used.
# MICs were determined using Etest strips (bioMérieux). Overnight cultures of the strains of interest were diluted 1:20 in PBS and spread on an MHA plate containing 100 mg/liter ampicillin and 1 mM IPTG where necessary with a cotton swab. Etest strips were applied in the middle of the plates and incubated at 37°C overnight. MIC values were scored after 20 h of incubation. Colistin MICs were determined using microdilution. For this, bacteria were grown on MHA with 100 mg/liter ampicillin, and 1 to 2 colonies were dissolved in 1 ml PBS to approximately 0.5 McFarland. The cell suspension was diluted 1:100 in Muller Hinton 2 broth (cation adjusted), and 50 μl was mixed with 50 μl Muller Hinton 2 broth containing 0.4% arabinose, 30 mg/liter chloramphenicol, and a 2-fold dilution series of colistin. The assay was performed in round-bottomed 96-well plates at 37°C overnight in a stationary position. The MIC was determined as the concentration where no growth could be observed and is based on a minimum of two biological replicates. If the determined values of the replicates were not identical, a third replicate was performed.
# The site saturation mutagenesis was performed with GeneArt (ThermoFisher) based on the sequence of Arp1, where each position in the wild-type sequence was replaced by the amino acids lysine (K), glutamic acid (E), proline (P), tryptophan (W), and serine (S). All variants were subcloned into our modified expression vector, pBAD18-RND, using the AgeI/HindIII cloning sites, transformed into E. coli, and delivered as a total pool glycerol stock. […] The plasmid variants were determined by Sanger sequencing (Eurofins, Germany). […]
# [3] = system: E. coli; assay: Toxicity of peptides when expressed; format: cell-based, Escherichia coli; settings: expressed in E. coli from pBAD vector
# [4] = system: E. coli membrane potential; assay: Membrane potential assay with DiBAC4(3); format: cell-based, Escherichia coli; settings: 100 μM CCCP, 30 min, room temperature; positive control
# Description: Bacteria were grown overnight in MHB supplemented with 15 mg/liter chloramphenicol at 37°C. The following day all cultures were diluted 1:100 in MHB supplemented with 15 mg/liter chloramphenicol and grown to an OD600 of approximately 0.3 (time point 0). At the target OD600, IPTG was added to each culture to a final concentration of 1 mM, and cells were incubated for another 60 min to allow expression of proteins (time point 1). At both time points, approximately 10^6 cells were transferred to 1 ml PBS with 10 mg/liter DiBAC4(3) (D8189; Sigma-Aldrich) with or without 100 μM carbonyl cyanide 3-chlorophenylhydrazone (CCCP; Sigma-Aldrich) and incubated for 30 min at room temperature in the dark. Fluorescence was measured with a MACSQuant VYB (Miltenyi Biotec) using the GFP/FITC (green fluorescent protein/fluorescein isothiocyanate) channel and a threshold of 15,000 gated cells. The raw data were analyzed and visualized with FlowJo (BD Bioscience).
compound,measurement,setting,value
N#CC(C#N)=NNc1ccc(OC(F)(F)F)cc1 [FCCP],Effect of ionophore added in addition to Arp1 peptide,[1],fully collapsed the gradient
"CC(C)[C@@H]1NC(=O)[C@H](C)OC(=O)[C@@H](C(C)C)NC(=O)[C@@H](C(C)C)OC(=O)[C@H](C(C)C)NC(=O)[C@H](C)OC(=O)[C@@H](C(C)C)NC(=O)[C@@H](C(C)C)OC(=O)[C@H](C(C)C)NC(=O)[C@H](C)OC(=O)[C@@H](C(C)C)NC(=O)[C@@H](C(C)C)OC1=O [Valinomycin, valinomycin]",Effect of ionophore added in addition to Arp1 peptide,"[1]; valinomycin 6 μM, then FCCP 21 μM, positive controls",further rate increase
NC[C@H]1O[C@H](O[C@H]2[C@H](O)[C@@H](O[C@H]3O[C@H](CO)[C@@H](O)[C@H](N)[C@H]3O)[C@H](N)C[C@@H]2N)[C@H](O)[C@@H](O)[C@@H]1O [kanamycin],Kanamycin MIC of the empty vector control strain,"[2]; E. coli BW25113 with empty vector, Etest, 37°C, 20 h",0.75 µg/mL
"IbsC: endogenous E. coli toxin peptide similar to Arp1-3 in size and hydrophobicity (MMRLVIILIVLLLISFSAY; UniProt C1P615 1-19, looked up)",Increased aminoglycoside resistance on overexpression of endogenous E. coli peptides,[2],no increased resistance
"LdrD: endogenous E. coli toxin peptide similar to Arp1-3 in size and hydrophobicity (MTFAELGMAFWHDLAAPVIAGILASMIVNWLNKRK; UniProt Q6BF25 1-35, looked up)",Increased aminoglycoside resistance on overexpression of endogenous E. coli peptides,[2],no increased resistance
"TisB: endogenous E. coli K-12 29-mer toxin of a toxin-antitoxin system (MNLVDIAILILKLIVAALQLLDAVLKYLK; UniProt A5A627 1-29, looked up)",Increased aminoglycoside resistance on overexpression of endogenous E. coli peptides,[2],no increased resistance
same,Toxicity when expressed,[3],lethal
carbonyl cyanide m-chlorophenyl hydrazine [CCCP],"Membrane potential, DiBAC4(3) fluorescence",[4],clear shift to higher fluorescence
